Where two headings read alike, the source gives them in different places.
Target: T1, PERK (Homo sapiens, UniProt Q9NZJ5)
T1 sequence (Q9NZJ5 30-1116): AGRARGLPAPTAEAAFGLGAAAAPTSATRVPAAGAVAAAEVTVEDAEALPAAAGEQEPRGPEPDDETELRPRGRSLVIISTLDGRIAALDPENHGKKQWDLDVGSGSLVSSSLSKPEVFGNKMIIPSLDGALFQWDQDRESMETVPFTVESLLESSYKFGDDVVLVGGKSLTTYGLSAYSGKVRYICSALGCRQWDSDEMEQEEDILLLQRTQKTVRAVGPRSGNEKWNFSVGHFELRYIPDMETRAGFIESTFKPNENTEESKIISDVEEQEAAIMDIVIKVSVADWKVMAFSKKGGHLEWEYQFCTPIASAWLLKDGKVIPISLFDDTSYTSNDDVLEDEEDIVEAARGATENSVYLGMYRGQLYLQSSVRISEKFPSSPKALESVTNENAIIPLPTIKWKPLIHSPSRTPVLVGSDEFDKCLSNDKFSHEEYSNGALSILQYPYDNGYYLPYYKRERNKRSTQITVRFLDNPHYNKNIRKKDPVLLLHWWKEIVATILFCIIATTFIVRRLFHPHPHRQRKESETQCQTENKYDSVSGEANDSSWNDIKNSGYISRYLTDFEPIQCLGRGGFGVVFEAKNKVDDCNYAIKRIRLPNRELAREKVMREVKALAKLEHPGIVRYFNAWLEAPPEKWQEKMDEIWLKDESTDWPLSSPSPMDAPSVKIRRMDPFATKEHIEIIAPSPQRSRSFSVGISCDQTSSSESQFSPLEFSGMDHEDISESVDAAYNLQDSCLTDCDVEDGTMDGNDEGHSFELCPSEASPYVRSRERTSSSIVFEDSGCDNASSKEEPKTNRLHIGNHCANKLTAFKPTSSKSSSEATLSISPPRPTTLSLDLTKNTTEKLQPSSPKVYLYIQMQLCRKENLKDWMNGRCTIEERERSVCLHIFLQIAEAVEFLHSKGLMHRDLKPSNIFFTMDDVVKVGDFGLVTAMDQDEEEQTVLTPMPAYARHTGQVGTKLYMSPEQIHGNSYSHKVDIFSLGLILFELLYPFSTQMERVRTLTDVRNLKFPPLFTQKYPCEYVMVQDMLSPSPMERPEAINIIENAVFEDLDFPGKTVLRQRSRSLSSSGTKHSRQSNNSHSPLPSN
Assay: PERK enzyme assay (HTRF)
Type: biochemical
Conditions: at least one experimental run
Protocol: Compounds of the invention were assayed for PERK enzyme inhibitory activity with modifications to previously reported conditions (Axten et al. J. Med. Chem., 2012, 55, 7193-7207). Briefly, various concentrations of compounds (maximum 1% DMSO) were dispensed into 384-well plates containing GST-PERK enzyme. After 30-60 minutes of compound pre-incubation, ATP and biotin-eIF2α were added and after 60 minutes the reaction was quenched. After 2 hrs, a fluorescence plate reader was used to measure inhibition and IC50s were calculated.
Enzyme Assay Protocol for PKR-Like Endoplasmic Reticulum Kinase (PERK)—HTRF —% Inhibition
Assay Buffer contains HEPES (pH7.5) 10 mM, CHAPS 2 mM, MgCl2 5 mM and DTT 1 mM in water
Detection Buffer contains HEPES (pH7.5) 10 mM and CHAPS 2 mM in water Assay Plate Preparation:
1. Enzyme Preparation: • 4× Enzyme solution was prepared immediately prior to adding to compound plates. • 3 nM of GST-PERK in Assay buffer. Final [PERK] in 10 μl assay volume=0.75 nM
2. Substrate Preparation: • 4× Substrate solution was prepared immediately prior to adding to compound plates. • 4× Substrate solution in assay buffer 2000 μM ATP and 160 nM Biotin-eIF2α • Final [ATP] in 10 μl assay volume=500 μM • Final [biotin-eIF2a] in 10 μl assay volume=40 nM.
3. Quench/Detection Solution: • 16 nM eIF2 Phospho-Antibody • 16 nM Eu anti-Rabbit IgG • 160 nM Streptavidin-APC • 60 mM EDTA • Final concentration in 10 μL assay volume: 4 nM eIF2 Phospho-Antibody, 4 nM Eu anti-Rabbit IgG 40 nM Streptavidin-APC
The activity of compounds in the PERK enzyme assay was determined at PERK Enzyme (500 μM ATP) IC50 (nM).

[1] = PERK Enzyme (500 μM ATP) IC50, read-out: PERK Activity
[2] = 500 μM ATP, read-out: PERK Enzyme (500 μM ATP) IC50

Compound | IC50 [1] | IC50 [2]
CCN1C(=O)N(c2ccc(-c3cn(C)c4nc(C)nc(N)c34)c(F)c2)CC1c1cc(F)ccc1F (single isomer, unassigned) [Example 54, 1-(4-(4-amino-2,7-dimethyl-7H-pyrrolo[2,3-d]pyrimidin-5-yl)-3-fluorophenyl)-4-(2,5-difluorophenyl)-3-ethylimidazolidin-2-one] | < 100 nM | –
CN1C(=O)N(c2ccc(-c3cn(C)c4ncnc(N)c34)c(F)c2)CC1c1ccc(F)cc1 (single isomer, unassigned) [Example 59, 1-(4-(4-amino-7-methyl-7H-pyrrolo[2,3-d]pyrimidin-5-yl)-3-fluorophenyl)-4-(4-fluorophenyl)-3-methylimidazolidin-2-one] | < 100 nM | 3.9 nM
Cc1nc(N)c2c(-c3ccc(N4CC(c5ccc(F)cc5F)N(C)C4=O)cc3F)cn(C)c2n1 (single isomer, unassigned) [Example 66, 1-(4-(4-amino-2,7-dimethyl-7H-pyrrolo[2,3-d]pyrimidin-5-yl)-3-fluorophenyl)-4-(2,4-difluorophenyl)-3-methylimidazolidin-2-one] | < 100 nM | 86.9 nM
Cc1nc(N)c2c(-c3ccc(N4CC(c5c(F)cc(F)cc5F)N(C)C4=O)cc3F)cn(C)c2n1 (single isomer, unassigned) [Example 71, 1-(4-(4-amino-2,7-dimethyl-7H-pyrrolo[2,3-d]pyrimidin-5-yl)-3-fluorophenyl)-3-methyl-4-(2,4,6-trifluorophenyl)imidazolidin-2-one] | 100 to 1000 nM | –
CC(C)n1cc(-c2ccc(N3CC(c4cc(F)ccc4F)N(C)C3=O)cc2F)c2c(N)ncnc21 (single isomer, unassigned) [Example 86, 1-(4-(4-amino-7-isopropyl-7H-pyrrolo[2,3-d]pyrimidin-5-yl)-3-fluorophenyl)-4-(2,5-difluorophenyl)-3-methylimidazolidin-2-one] | 100 to 1000 nM | –
CC(C)n1cc(-c2ccc(N3CC(c4cc(F)ccc4F)N(C)C3=O)cc2F)c2c(N)ncnc21 (single isomer, unassigned) [Example 87, 1-(4-(4-amino-7-isopropyl-7H-pyrrolo[2,3-d]pyrimidin-5-yl)-3-fluorophenyl)-4-(2,5-difluorophenyl)-3-methylimidazolidin-2-one] | 100 to 1000 nM | –
Cc1nc(N)c2c(-c3ccc(N4CC(c5ccc(F)cc5)N(C)C4=O)cc3F)cn(C3CC3)c2n1 (single isomer, unassigned) [Example 90, 1-(4-(4-amino-7-cyclopropyl-2-methyl-7H-pyrrolo[2,3-d]pyrimidin-5-yl)-3-fluorophenyl)-4-(4-fluorophenyl)-3-methylimidazolidin-2-one] | < 100 nM | –
Cc1nc(N)c2c(-c3ccc(N4CC(c5ccc(F)cc5F)N(C)C4=O)cc3F)cn(C(C)C)c2n1 (single isomer, unassigned) [Example 95, 1-(4-(4-amino-7-isopropyl-2-methyl-7H-pyrrolo[2,3-d]pyrimidin-5-yl)-3-fluorophenyl)-4-(2,4-difluorophenyl)-3-methylimidazolidin-2-one] | 100 to 1000 nM | –

The remaining lines, values ahead:

IC50 [1] | IC50 [2] | Compound
100 to 1000 nM | – | Cc1nc(N)c2c(-c3ccc(N4CC(C5CCCCC5)N(C)C4=O)cc3F)cn(C)c2n1 (single isomer, unassigned) [Example 61, 1-(4-(4-amino-2,7-dimethyl-7H-pyrrolo[2,3-d]pyrimidin-5-yl)-3-fluorophenyl)-4-cyclohexyl-3-methylimidazolidin-2-one]
< 100 nM | – | CN1C(=O)N(c2ccc(-c3cn(C)c4ncnc(N)c34)c(F)c2)CC1C1CCCCC1 (single isomer, unassigned) [Example 62, 1-(4-(4-amino-7-methyl-7H-pyrrolo[2,3-d]pyrimidin-5-yl)-3-fluorophenyl)-4-cyclohexyl-3-methylimidazolidin-2-one]
< 100 nM | – | CN1C(=O)N(c2ccc(-c3cn(C)c4ncnc(N)c34)c(F)c2)CC1C1CCCCC1 (single isomer, unassigned) [Example 63, 1-(4-(4-amino-7-methyl-7H-pyrrolo[2,3-d]pyrimidin-5-yl)-3-fluorophenyl)-4-cyclohexyl-3-methylimidazolidin-2-one]
100 to 1000 nM | – | CCN1C(=O)N(c2ccc(-c3cn(C)c4nc(C)nc(N)c34)c(F)c2)CC1c1ccc(F)cc1F (single isomer, unassigned) [Example 67, 1-(4-(4-amino-2,7-dimethyl-7H-pyrrolo[2,3-d]pyrimidin-5-yl)-3-fluorophenyl)-4-(2,4-difluorophenyl)-3-ethylimidazolidin-2-one]
< 100 nM | 18.6 nM | Cc1nc(N)c2c(-c3ccc(N4CC(c5ccc(F)cc5)N(C)C4=O)cc3F)cn(C)c2n1 (single isomer, unassigned) [Example 70, 1-(4-(4-amino-2,7-dimethyl-7H-pyrrolo[2,3-d]pyrimidin-5-yl)-3-fluorophenyl)-4-(4-fluorophenyl)-3-methylimidazolidin-2-one]
< 100 nM | – | CN1C(=O)N(c2ccc(-c3cn(C)c4ncnc(N)c34)c(F)c2)CC1c1cccc(F)c1F (single isomer, unassigned) [Example 77, 1-(4-(4-amino-7-methyl-7H-pyrrolo[2,3-d]pyrimidin-5-yl)-3-fluorophenyl)-4-(2,3-difluorophenyl)-3-methylimidazolidin-2-one]
< 100 nM | – | Cc1nc(N)c2c(-c3ccc(N4CC(c5ccc(F)c(F)c5)N(C)C4=O)cc3F)cn(C)c2n1 (single isomer, unassigned) [Example 80, 1-(4-(4-amino-2,7-dimethyl-7H-pyrrolo[2,3-d]pyrimidin-5-yl)-3-fluorophenyl)-4-(3,4-difluorophenyl)-3-methylimidazolidin-2-one]
100 to 1000 nM | 192 nM | CCN1C(=O)N(c2ccc(-c3cn(C)c4ncnc(N)c34)c(F)c2)CC1c1cc(F)cc(C(F)(F)F)c1 (single isomer, unassigned) [Example 88, 1-(4-(4-amino-7-methyl-7H-pyrrolo[2,3-d]pyrimidin-5-yl)-3-fluorophenyl)-3-ethyl-4-(3-fluoro-5-(trifluoromethyl)phenyl)imidazolidin-2-one]
100 to 1000 nM | – | CCN1C(=O)N(c2ccc(-c3cn(C)c4ncnc(N)c34)c(F)c2)CC1c1cc(F)cc(C(F)(F)F)c1 (single isomer, unassigned) [Example 89, 1-(4-(4-amino-7-methyl-7H-pyrrolo[2,3-d]pyrimidin-5-yl)-3-fluorophenyl)-3-ethyl-4-(3-fluoro-5-(trifluoromethyl)phenyl)imidazolidin-2-one]
< 100 nM | 3 nM | CN1C(=O)N(c2ccc(-c3cn(C)c4ncnc(N)c34)c(F)c2)CC1c1cc(F)cc(F)c1 (single isomer, unassigned) [Example 100, 1-(4-(4-amino-7-methyl-7H-pyrrolo[2,3-d]pyrimidin-5-yl)-3-fluorophenyl)-4-(3,5-difluorophenyl)-3-methylimidazolidin-2-one]
100 to 1000 nM | – | CN1C(=O)N(c2ccc(-c3cn(C)c4ncnc(N)c34)c(F)c2)CC1c1cc(F)cc(F)c1 (single isomer, unassigned) [Example 101, 1-(4-(4-amino-7-methyl-7H-pyrrolo[2,3-d]pyrimidin-5-yl)-3-fluorophenyl)-4-(3,5-difluorophenyl)-3-methylimidazolidin-2-one]

From patent US20180237441A1, “Chemical Compounds” (GlaxoSmithKline Intellectual Property (No.2) Limited, priority 2015, published 2018)
